The values that follow come from the supplement of paper PMC3974653.

Molecules are shown by their SMILES. Structures can show the parent of a compound that is named as a salt.

Holding throughout (conditions): (24 or 48 h)
Experiment [1] has as its system MTT (mouse pheochromocytoma). The experiment can be described thus: efficacy (maximal response) relative to doxorubicin = -100% and DMSO = 0%; higher = less inhibition of viability.
The test system of experiment [2] is MTT (mouse pheochromocytoma). The experiment can be described thus: IC50 of cell viability (ATP content); AC50 where efficacy is positive.
Experiment [3] has as its system MTT (mouse pheochromocytoma). As to the kind of experiment: IC50 of cell viability (ATP content). Put shortly:
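The IC50 was fitted with a four-parameter logistic equation to normalised CellTiter-Glo ATP luminescence from MTT mouse pheochromocytoma cells. These cells, in white 1536-well plates, had been treated for 24 or 48 hrs with library compounds at 8 final concentrations between 0.5 nM and 46 µM, and luminescence was read after 15 minutes. Positive-control wells served as 100% and DMSO wells as 0%.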

As for `CCOc1ccc(/N=N/c2ccc(N)cc2N)cc1` [Ethoxazene hydrochloride], in experiment [1], the efficacy was -57.4%. Also, the “IC50 of cell viability” value in experiment [2] came out at 11.9 µM.
The matching figures for `COc1ccc(CC(N)C(=O)NC2C(CO)OC(n3cnc4c(N(C)C)ncnc43)C2O)cc1.Cl.Cl` (centres undefined) [PUROMYCIN HYDROCHLORIDE]: -63.1% and 11.9 µM.
For `COc1cc(NCc2ccc3nc(N)nc(N)c3c2C)cc(OC)c1OC` [TRIMETREXATE GLUCURONATE], the efficacy in experiment [1] was -50.7%. Further, in experiment [2], the “IC50 of cell viability” value was determined as 0.376 µM.
The matching figures for `Cc1cc(O)c2c3c4c(cc(O)c13)C(C)(C)C(=O)c1c(O)cc(O)c(c1-4)C2=O` [HELIOMYCINUM]: -46.4% and 3.35 µM.
For `CCCCNc1ccc(C(=O)OCCOCCOCCOCCOCCOCCOCCOCCOCCOC)cc1` [Benzonatate], the “IC50 of cell viability” value in experiment [3] is over 46 µM.
As for `Nc1ccccc1N` [1,2-Phenylenediamine], in experiment [3], the “IC50 of cell viability” value was over 46 µM.
On the same count and under the same terms, for `CC(=O)SC[C@@H](C)C(=O)N1CCC[C@H]1C(=O)N[C@@H](Cc1ccccc1)C(=O)O` [ALACEPRIL] the value was over 46 µM; for `CCCc1cc(O)nc(S)n1` [6-Propyl-2-thiouracil], over 46 µM.
On the same count and under the same terms, for `COc1nc(N)nc2c1ncn2C1OC(CO)C(O)C1O` (centres undefined) [NELARABINE] the value was over 46 µM.
The same measure, in the same setting: next, `CC1CCC(C(C)C)C(OC(=O)c2ccccc2O)C1` (centres undefined) [MENTHYL SALICYLATE]: over 46 µM; `CC[C@@H]([C@H](C)O)N1\N=C/N(C1=O)C2=CC=C(C=C2)N3CCN(CC3)C4=CC=C(OCC5CO[C@@](C5)(C[N]6C=NC=N6)C7=C(F)C=C(F)C=C7)C=C4` (some centres undefined) [Posaconazole]: over 46 µM; `CCCCCC(N)=O` [Hexanamide]: over 46 µM.
Consider `C[C@]12CC[C@@H]3c4ccc(OC(=O)N(CCCl)CCCl)cc4CC[C@@H]3[C@H]1CC[C@@H]2OP(=O)(O)O` [ESTRAMUSTINE PHOSPHATE], for which the “IC50 of cell viability” value in experiment [3] was over 46 µM.
On the same count and under the same terms, for `CCC1(CC)C(=O)NC(=O)N(C)C1=O` [METHARBITAL] the value was over 46 µM.
The same measure, in the same setting: next, `C=CCc1ccc(O)c(OC)c1` [Eugenol]: over 46 µM; `CC1CC(OC(=O)C(O)c2ccccc2)CC(C)(C)C1` (centres undefined) [CYCLANDELATE]: over 46 µM.
Take `O=C(O)/C=C\c1ccc(Cn2ccnc2)cc1` [Ozagrel hydrochloride]: the “IC50 of cell viability” value in experiment [3] was over 46 µM.
On the same count and under the same terms, next, `CCCC(C)(COC(N)=O)COC(=O)NC1CC1` (centres undefined) [Lorbamate]: over 46 µM; `CCC(=O)OCC(=O)[C@@]1(OC(=O)CC)[C@@H](C)C[C@H]2[C@@H]3CCC4=CC(=O)C=C[C@]4(C)[C@@]3(F)[C@@H](O)C[C@@]21C` [dexamethasone dipropionate]: over 46 µM; `CN(C)CCc1c[nH]c2ccc(O)cc12` [Bufotenine]: over 46 µM.
The same measure, in the same setting: for `Fc1ccc(C(c2ccc(F)cc2)N2CCN(C/C=C/c3ccccc3)CC2)cc1` [FLUNARIZINE] the value was over 46 µM; for `COc1ccc(OC)c([C@H](O)CNC(=O)CN)c1` [Midodrine hydrochloride], over 46 µM.
The same measure, in the same setting: for `O=C(N/N=C/c1ccc([N+](=O)[O-])o1)c1cc([N+](=O)[O-])cc([N+](=O)[O-])c1O` [Nifursol] the value was over 46 µM; for `CN(C)CCCN1c2ccccc2CCc2ccc(Cl)cc21` [CLOMIPRAMINE], over 46 µM.
Consider `CC1CC(OC(=O)c2ccccc2O)CC(C)(C)C1` (centres undefined) [Homosalate], for which the “IC50 of cell viability” value in experiment [3] is over 46 µM.
Same read-out and setting: next, `COc1ccc(O)cc1` [MEQUINOL]: over 46 µM; `COC1=C2OC(=O)\C=C/C2=CC3=C1OC=C3` [Methoxsalen]: over 46 µM; `Cn1c(=O)c2c(ncn2CC2OCCO2)n(C)c1=O` [Doxofylline]: over 46 µM.
The same measure, in the same setting: for `CN(C(=O)CN(CCO)CC(=O)N(C)C(C)(C)Cc1ccccc1)C(C)(C)Cc1ccccc1` [Oxethazaine] the value was over 46 µM.
The same measure, in the same setting: next, `CN(C1CCCCC1)C(=O)CCCOC2=CC\3=C(NC(=O)\C=C3)C=C2` [Cilostamide]: over 46 µM.
Take `CCOC(=O)c1cnc2cc(OCC(C)C)c(OCC(C)C)cc2c1O` [BUQUINOLATE]: in experiment [3], the “IC50 of cell viability” value is over 46 µM.
Same read-out and setting: next, `N[S+]([O-])(=O)C1=C(Cl)C=C2\N=C/N[S+]([O-])(=O)C2=C1` [Chlorothiazide]: over 46 µM.
Still for that read-out and setting: for `CC(=O)OC1CC(OC2C(O)CC(OC3C(O)CC(O[C@H]4CC[C@]5(C)C6CC[C@]7(C)[C@@H](C8=CC(=O)OC8)[C@@H](O)C[C@]7(O)[C@@H]6CC[C@@H]5C4)OC3C)OC2C)OC(C)C1OC1OC(CO)C(O)C(O)C1O` (some centres undefined) [Lanatoside B] the value was over 46 µM; for `CC(C)(C)c1ccc2c(S(=O)(=O)[O-])c(C(C)(C)C)ccc2c1` [DIBUNATE SODIUM], over 46 µM; for `Clc1ccc(Cl)cc1` [PARADICHLOROBENZENE], over 46 µM.
The same measure, in the same setting: for `N[C@H](Cc1c[nH]c2ccccc12)C(=O)O` [D-TRYPTOPHAN] the value was over 46 µM; for `COc1ccccc1N1CCN(CC(O)COc2cccc3ccccc23)CC1` (centres undefined) [NAFTOPIDIL], over 46 µM.
In the case of `O=P(O)(O)C(O)(Cn1ccnc1)P(=O)(O)O` [Zoledronic acid], in experiment [3], the “IC50 of cell viability” value was over 46 µM.
Still for that read-out and setting: for `Oc1noc2c1CCNC2` [4,5,6,7-TETRAHYDROISOXAZOLO[5,4-c]PYRIDIN-3-OL] the value was over 46 µM; for `CCc1cc(C(N)=S)ccn1` [Ethionamide], over 46 µM.
The same measure, in the same setting: for `NC(CSSCC(N)C(=O)O)C(=O)O` (centres undefined) [CYSTINE] the value was over 46 µM; for `Cc1ncc(CO)c(CO)c1O` [Pyridoxine], over 46 µM; for `C=C1CCC2[C@](C)(CO)C(O)CC[C@]2(C)C1C/C=C1/C(=O)OCC1O` (some centres undefined) [ANDROGRAPHOLIDE], over 46 µM.
As to `c1ccc2nc(N3CCNCC3)ccc2c1` [QUIPAZINE], in experiment [3], the “IC50 of cell viability” value is over 46 µM.
Take `CCN(C(C)=O)c1cccc(-c2ccnc3c(C#N)cnn23)c1` [Zaleplon]: the “IC50 of cell viability” value in experiment [3] was over 46 µM.
Still for that read-out and setting: next, `CNC1(c2ccccc2Cl)CCCCC1=O` (centres undefined) [Cetamina]: over 46 µM.
On to `Oc1c(I)cc(Cl)c2cccnc12` [Iodochlorohydroxyquinoline], for which the “IC50 of cell viability” value in experiment [3] is over 46 µM.
For `O=C([O-])COc1nn(Cc2ccccc2)c2ccccc12` [BENDAZAC], the “IC50 of cell viability” value in experiment [3] is over 46 µM.
Same read-out and setting: for `Cl.CC(C)NC/1=C(C)/N(C)N(C1=O)C2=CC=CC=C2` [RAMIFENAZONE] the value was over 46 µM; for `O=C(Nc1ccccc1-c1ccc(Cl)cc1)c1cccnc1Cl` [Boscalid], over 46 µM.
Same read-out and setting: next, `Nc1ccc(Sc2ccc(N)cc2)cc1` [4,4'-Thiodianiline]: over 46 µM; `COc1ccc(-c2nc3ccc(C4=C(C)CC(=O)NN4)cc3[nH]2)cc1` [PIMOBENDAN]: over 46 µM; `COC(=O)[C@@H]1[C@@H]2C[C@H]3c4[nH]c5ccccc5c4CCN3C[C@@H]2CC[C@@H]1O` [Yohimbine]: over 46 µM.
On the same count and under the same terms, next, `[K+].C[C@@]12CCC(=O)\C=C1\C=C/[C@@H]3[C@@H]2CC[C@]4(C)[C@@H]3CC[C@]4(O)CCC([O-])=O` [Canrenoic acid potassium salt]: over 46 µM; `CN1CCC[C@@H]1c1cccnc1` [(+)-NICOTINE]: over 46 µM; `NC(=O)CN1CCCC1=O` [Piracetam]: over 46 µM.
`O=C(NCCO[N+](=O)[O-])c1cccnc1` [Nicorandil]: in experiment [3], the “IC50 of cell viability” value was over 46 µM.
Same read-out and setting: for `CC(=O)O[C@H]1C[C@H](O[C@H]2[C@@H](O)CC(O[C@H]3[C@@H](O)C[C@H](O[C@H]4CC[C@@]5(C)[C@H](CC[C@@H]6[C@@H]5CC[C@]5(C)[C@@H](C7=CC(=O)OC7)CC[C@]65O)C4)O[C@@H]3C)O[C@@H]2C)O[C@H](C)[C@H]1O[C@@H]1O[C@H](CO)[C@@H](O)[C@H](O)[C@H]1O` (some centres undefined) [LANATOSIDE A] the value was over 46 µM; for `Cc1ccc([S+](=O)([O-])NC(=O)NN2CCCCCC2)cc1` [TOLAZAMIDE], over 46 µM; for `COc1cc(OC)cc(OC)c1` [1,3,5-TRIMETHOXYBENZENE], over 46 µM.
Regarding `CC[C@@H](O)C(C[C@@H](C)N(C)C)(c1ccccc1)c1ccccc1`, the “IC50 of cell viability” value in experiment [3] is over 46 µM.
On the same count and under the same terms, next, `CC(CC(C#N)(c1ccccc1)c1ccccc1)N(C)C` (centres undefined) [(?)-4-Dimethylamino-2,2-diphenylvaleronitrile]: over 46 µM; `CN1CCN(C2Cc3ccccc3Sc3ccc(Cl)cc32)CC1.O=C(O)/C=C\C(=O)O` (centres undefined) [(?)-Octoclothepin maleate]: over 46 µM; `CC[N+](CC)(CC)CCOc1cccc(OCC[N+](CC)(CC)CC)c1OCC[N+](CC)(CC)CC` [GALLAMINE]: over 46 µM.
Still for that read-out and setting: next, `O=C(Oc1ccccc1)c1ccccc1O` [Phenyl salicylate]: over 46 µM.
